Results as given in patent publication US20230157996A1, “SMALL-MOLECULE INHIBITOR TARGETING EB VIRUS NUCLEAR ANTIGEN PROTEIN, PREPARATION METHOD AND USE THEREOF” (priority 2020, published 2023).

The compounds below were run on C666-1 cells (assay: C666-1 cell viability single concentration (50 μM) inhibition rate (Resazurin)). Conditions: Homo sapiens, C6661, 72 h, 50 μM compound, 72 hours, C666-1 cells; read-out: C666-1 cell viability single concentration (50 μM) inhibition rate, Ratio* (Inh %).
Format: cell-based
Method: In order to assess the effect of the EBNA1 inhibitor at the cellular level, the cell proliferation inhibition rate was tested, and the inhibition rate of inhibitor at a specific concentration on the proliferation of Epstein-Barr virus positive cell line C666-1 was detected.
In the test, 100 μL C666-1 cells were inoculated in a transparent 96-well plate, and each well contained 5×10^3 cells. After the cells were cultured in an incubator with 5% carbon dioxide at 37° C. for 24 hours, 10 μL compound at a concentration of 500 μmol/L was added into the cells, so that the final concentration of the compound was 50 μmol/L. Two replicate wells were set for each compound, the wells treated with DMSO were set as control wells (Ctrl), and the wells with cell culture medium only were set as blank wells (blank), and they were treated in the incubator with carbon dioxide at 37° C. for 72 hours. The cell viability was assessed using a redox indicator Resazurin. Specifically, 10 μL Resazurin at a concentration of 600 umol/L was added into each well, and incubated at 37° C. for 3 hours, and a Tecan microplate reader was used to detect the fluorescence signal at an excitation wavelength of 560 nm and an emission wavelength of 590 nm. The formula inh %=1−(F−Fblank)/(FCtrl−Fblank)×100% (where, F is the fluorescence intensity of the compound-added wells, FCtrl and Fblank are the readings of the control wells and blank wells, respectively) was used to calculate the inhibition rate of the compound on the proliferation of C666-1 cells, so as to assess the activity of the compound on Epstein-Barr virus positive cells.

SMILES | inhibition at 50 µM [%]
O=C(O)c1cccc(N2CC(Oc3ccc(CO)cc3)C2)c1-n1cccc1 [Compound 38, 3-(3-(4-(hydroxymethyl)phenoxy)azetidin-1-yl)-2-(1H-pyrrol-1-yl)benzoic acid] | < 10
COC(=O)c1cccc(N2CC(Oc3ccc(CO)cc3)C2)c1-c1ccc2cc[nH]c2c1 [Compound 39, Methyl 3-(3-(4-(hydroxymethyl)phenoxy)azetidin-1-yl)-2-(1H-indol-6-yl)benzoate] | 30 to 50
O=C(O)c1cccc(N2CC(Oc3ccc(CO)cc3)C2)c1-c1ccc2cc[nH]c2c1 [Compound 40, 3-(3-(4-(hydroxymethyl)phenoxy)azetidin-1-yl)-2-(1H-indol-6-yl)benzoic acid] | < 10
COC(=O)c1cccc(N2CC(Oc3ccc(CO)cc3)C2)c1-c1ccccc1 [Compound 41, Methyl 6-(3-(4-(hydroxymethyl)phenoxy)azetidin-1-yl)-[1,1′-biphenyl]-2-formate] | 10 to 30
O=C(O)c1cccc(N2CC(Oc3ccc(CO)cc3)C2)c1-c1ccccc1 [Compound 42] | < 10
COC(=O)c1cccc(N2CC(Oc3ccc(CO)cc3)C2)c1-c1ccc2ccsc2c1 [Compound 43, Methyl 2-(benzo[b]thiophen-6-yl)-3-(3-(4-(hydroxymethyl)phenoxy)azetidin-1-yl)benzoate] | 10 to 30
O=C(O)c1cccc(N2CC(Oc3ccc(CO)cc3)C2)c1-c1ccc2ccsc2c1 [Compound 44, 2-(benzo[b]thiophen-6-yl)-3-(3-(4-(hydroxymethyl)phenoxy)azetidin-1-yl)benzoic acid] | < 10
COC(=O)c1cccc(N2CC(Oc3ccc(CO)cc3)C2)c1-c1ccc2nsnc2c1 [Compound 45, Methyl 2-(benzo[c][1,2,5]thiadiazol-5-yl)-3-(3-(4-(hydroxymethyl)phenoxy)azetidin-1-yl)benzoate] | 10 to 30
O=C(O)c1cccc(N2CC(Oc3ccc(CO)cc3)C2)c1-c1ccc2nsnc2c1 [Compound 46] | < 10
COC(=O)c1cccc(N2CC(Oc3ccc(CO)cc3)C2)c1-c1ccco1 [Compound 47] | 30 to 50
COC(=O)c1cccc(N2CC(Oc3ccc(CO)cc3)C2)c1-c1ccoc1 [Compound 48] | > 50
O=C(O)c1cccc(N2CC(Oc3ccc(CO)cc3)C2)c1-c1ccoc1 [Compound 49] | < 10
COC(=O)c1cccc(N2CC(Oc3ccc(CO)cc3)C2)c1-c1cccc(F)c1 [Compound 50] | 10 to 30
O=C(O)c1cccc(N2CC(Oc3ccc(CO)cc3)C2)c1-c1cccc(F)c1 [Compound 51] | < 10
O=C(O)c1cccc(N2CC(Oc3ccc(CO)cc3)C2)c1-c1ccc2ccoc2c1 [Compound 52] | < 10
COC(=O)c1cccc(N2CC(Oc3ccc(CO)cc3)C2)c1-c1cccc(Cl)c1 [Compound 53, Methyl 3′-chloro-6-(3-(4-(hydroxymethyl)phenoxy)azetidin-1-yl)-[1,1′-biphenyl]-2-formate] | 10 to 30
O=C(O)c1cccc(N2CC(Oc3ccc(CO)cc3)C2)c1-c1cccc(Cl)c1 [Compound 54] | 30 to 50
COC(=O)c1cccc(N2CC(Oc3ccc(CO)cc3)C2)c1-c1cccc(C#N)c1 [Compound 55] | 10 to 30
O=C(O)c1cccc(-c2c(C(=O)O)cccc2N2CC(Oc3ccc(CO)cc3)C2)c1 [Compound 56] | < 10
COC(=O)c1cccc(N2CC(Oc3ccc(CO)cc3)C2)c1-c1ccc(Cl)cc1 [Compound 57] | 10 to 30
O=C(O)c1cccc(N2CC(Oc3ccc(CO)cc3)C2)c1-c1ccc(Cl)cc1 [Compound 58, 4′-chloro-6-(3-(4-(hydroxymethyl)phenoxy)azetidin-1-yl)-[1,1′-biphenyl]-2-formic acid] | < 10
COC(=O)c1cccc(N2CC(Oc3ccc(CO)cc3)C2)c1-c1cccc(C(F)(F)F)c1 [Compound 59, Methyl 3′-(trifluoromethyl)-6-(3-(4-(hydroxymethyl)phenoxy)azetidin-1-yl)-[1,1′-biphenyl]-2-formate] | 10 to 30
